Measured values published in patent publication US20250108088A1, “REGENERATIVE PEPTIDES AND METHODS FOR USE THEREOF” (priority 2023, published 2025).

Key:
HNDF fibroblasts = test: Fibroblast cell proliferation (EDU); assay type: cell-based, human; settings: N = 3; for Fibroblast proliferation, Representative value from experiments (% change relative to control): most effective significant concentration
Procedure: Fibroblast proliferation is an important component of tissue regeneration. To determine if the peptides of the disclosure affect fibroblast proliferation, HNDFs were grown as described above, and split from 1-10 cm plates to 4-24 well plates. After allowing the cells to grow overnight, normal media was replaced with starvation media (1% FBS in DMEM). 10 ng/ml of fibroblast growth factor (FGF) served as a positive control, untreated cells (starvation media only) served as a negative control, and different concentrations of the peptides as test articles. The cells were then exposed to the peptides for a day before adding 5-Ethynyl-2′-deoxyuridine (EDU) EDU signal marker for 2-4 hours to assess DNA synthesis and cell proliferation.
The fibroblasts were fixed in PFA for 10-15 minutes, then washed 2× in 4% BSA. 0.1% Triton X-100 in PBS was added for 20 min at 23° C. to permeabilize the cells. The cells were washed 2× in 4% BSA and the following reaction mixture was added: 0.25% of 488 iFlour azide, 4% CuSO, 10% Sodium Ascorbate in PBS. The cells were incubated at 23° C. for 30 minutes. The cells were washed in BSA 1× and in PBS 1×. The cells were also stained for DAPI for 30 minutes at 23° C. The cells were washed 2× in PBS and maintained in PBS.
Plates were imaged using the Celigo Imaging Cytometer by Nexcelcom. The amount of fluorescent expression of EDU and DAPI were quantified to determine the amount of EDU/field (and thus the percentage of fibroblast cells dividing).
Because the concentration required to induce an effect with each peptide was not known, each peptide was tested in 3 concentrations: 10 ng/ml, 100 ng/ml, and 1000 ng/ml as shown in Table 4A and Table 4B.

[1] = test system: Acinetobacter baumannii ATCC 196062; test: Diffusion agar plate method, zone of inhibition; assay type: cell-based; settings: 62.5 μg/ml to 1000 μg/ml; FIG. 5, FIG. 10
Procedure: (§1) Cell culture: Cultures of each bacterial strain were prepared by inoculating on Muller Hinton Agar (MHA) medium. After overnight incubation at 37° C., the density of the bacterial cells was compared to the McFarland turbidity standard (0.5).
(§2) Plates were swabbed with McFarland 0.5 inoculum of each test bacteria. […] serial dilutions of the peptides were prepared and 20 μl of compound were dropped onto the MHA. Antibiotic disc served as a positive control and vehicle alone served as the negative control. Plates were incubated for 16-18 hours and assessed for antibacterial activity. Zones of inhibition were measured for each TA dilution and compared with the controls.

[2] = test system: Streptococcus pneumoniae DCC1335; test: Diffusion agar plate method, zone of inhibition; assay type: cell-based; settings: 62.5 μg/ml to 1000 μg/ml; FIG. 10
Procedure: as §1, §2

[3] = test system: Normal human dermal fibroblasts (HNDF); test: Myofibroblast transition assay (MFT), aSMA immunofluorescence; assay type: cell-based; settings: N = 3; for Myofibroblast transition (MFT), aSMA/cell, % change relative to control: TGF-Beta induced HNDF, control of no peptide; for MFT, Representative value from experiments (% change relative to control): most effective significant concentration of 10, 100, 1000 ng/ml
Description: The myofibroblast transition (MFT) assay determines the effect of the peptide on inhibiting the transition of fibroblasts to myofibroblasts. The extracellular matrix produced by myofibroblasts may be produced in excess and may not be remodeled during tissue healing, leaving behind the fibrous connective tissue that forms a scar. Thus, the ability to regulate the degree of MFT may enable control of scarring. To determine if the peptides provided herein affect MFT, the following assay was performed.
Normal human dermal fibroblasts (HNDF) were cultured in high glucose Dulbecco's modified eagle medium (DMEM) supplemented with 10% fetal bovine serum (FBS) and 5 ml of 10,000 units of penicillin/streptomycin. Cells were cultured on 10 cm plates with media changes every 2 days. Cells were passaged in 0.25% Trypsin/EDTA after achieving 80% confluency.
To induce myofibroblast transition (MFT), normal human dermal fibroblasts (HNDFs) were split from 1-10 cm plates to 5-96 well plates. Cells were then allowed to grow the next day. The following day, cells were serum starved (1% FBS in DMEM) for 4 hours prior to adding 20 ng/ml of TGF-Beta to all wells of the plate. 1000 μM of Vactosertib (TEW-7197/EW-7197) was added to serve as a positive control and different concentrations of peptides were added to serve as the test articles. The cells were then exposed to the compounds for 5 more days before fixation.
The cells were fixed in paraformaldehyde (PFA) for 10-15 minutes, then washed 2× in PBS. Cells were blocked in 4% BSA for 30 minutes at 23° C. Cells were stained with the primary alpha-smooth muscle actin (aSMA) antibody (1:100) for 1 hour at 23° C. or left out at 4° C. overnight. Cells were rinsed 2× with BSA and then the secondary antibody mix was added: Alexa 488 (1:500) and DAPI (1:1000) for 30 min at 23° C. or 1 hr at 4° C. The plates were covered during staining, then rinsed 2× in BSA and stored in PBS.
Plates were imaged using the Celigo Imaging Cytometer by Nexcelcom. The ratio of fluorescent expression of alpha-smooth muscle actin (aSMA) and DAPI were quantified to determine the amount of aSMA/cell.
The change (normalized to the control) in MFT for each concentration is shown along with the p value for all experiments relative to the control of no peptide.

[4] = test system: interleukin-8 (IL-8) production in human fibroblasts; test: Fibroblast inflammation assay (LPS-induced IL-8, ELISA); assay type: cell-based; settings: LPS induction
Procedure: Inflammation in fibroblasts leads to the production of the chemokine interleukin-8 (IL-8), which stimulates fibroblast to myofibroblast transition (MFT) thereby enhancing scar formation. To determine if the peptides of the instant disclosure affect fibroblast response to inflammation and fibroblast IL-8 production, the following assays were performed.
Human fibroblasts were grown as described above. HNDFs were plated in 96 well plates at a concentration of 1×10^4 cells/well and allowed to incubate overnight. The next day cells were dosed with 5 μg/mL of LPS with and without the peptides. The negative control contained only media and vehicle, while the positive control was dosed with lipopolysaccharides (LPS) and dexamethasone (50 μg/ml). After 24 hours, the media was removed to measure IL6 and IL8 cytokine levels using ELISA. A standard curve was plotted in excel. All data were blank subtracted and then fit onto the curve to calculate cytokine concentrations.

Keratinocytes = test: Keratinocyte scratch assay; assay type: cell-based, human; design: Keratinocyte scratch assay (% change relative to control): unit not given here
Procedure: HNDF fibroblasts were grown as described above. HNDFs were split from 1-10 cm plate to 4-24 well plates. Cells were allowed to grow until 90-100% confluent. Cells were serum starved (in 1% FBS in DMEM) for 4 hours before scratching using the Biotek Autoscratch machine. Cells were washed with PBS and the media was replaced with starvation media as a negative control, normal media (10% FBS) as positive control, and starvation media+compound as the test article. Cells were imaged at T=0 to serve as a baseline and fixed at T=48 hours. The images at 48 hours were imaged using phase contrast microscopy or with wheat germ agglutinin (WGA) stain.
Scratch assays were also performed on keratinocytes. Keratinocytes were grown to confluency and scratch assays were performed and measured as above with fibroblasts.

| Substance | Fibroblast proliferation, Representative value from experiments (% change relative to control) (HNDF fibroblasts) | Myofibroblast transition (MFT), aSMA/cell, % change relative to control ([3]; 100 ng/ml peptide) | Myofibroblast transition (MFT), aSMA/cell, % change relative to control ([3]; 1000 ng/ml peptide) | MFT, Representative value from experiments (% change relative to control) [3] | Myofibroblast transition (MFT), aSMA/cell, % change relative to control ([3]; 10 ng/ml peptide) | other results |
| --- | --- | --- | --- | --- | --- | --- |
| AATHEFGHSLGLSH [MBm1] | 0.2919 (p = 0.044) % | – | – | – | – | Fibroblast proliferation (% change relative to control) (HNDF fibroblasts; 100 ng/ml peptide): 0.2919% |
| ERDLK [MBb14] | 1.094 p = (0.029) % | – | – | – | – | Fibroblast proliferation (% change relative to control) (HNDF fibroblasts; 10 ng/ml peptide): 1.094% |
| FEDVIAEP [MBa5] | 0.5133 (p = 0.004) % | – | – | – | – | Fibroblast proliferation (% change relative to control) (HNDF fibroblasts; 10 ng/ml peptide): 0.5133% |
| GFWDIL WHIPHTIKG (GFWDILWHIPHTIKG) [MBdol15] | – | – | – | – | – | agar zone of inhibition, inhibiting bacterial growth [1]: effective; agar zone of inhibition, inhibiting bacterial growth [2]: effective |
| GYRCSKG [MBa7] | 0.4644 p = (0.01) % | – | – | – | – | Fibroblast proliferation (% change relative to control) (HNDF fibroblasts; 10 ng/ml peptide): 0.3483%; Fibroblast proliferation (% change relative to control) (HNDF fibroblasts; 1000 ng/ml peptide): 0.4644% |
| IDFEDVIAEP [MBa4] | 0.8384 p = (0.037) % | – | – | – | – | Fibroblast proliferation (% change relative to control) (HNDF fibroblasts; 1000 ng/ml peptide): 0.8384% |
| PKPQP [MBb28] | – | −0.243% | −0.1881% | −0.243 p = (0.006) % | – | effect on IL-8 inhibition in fibroblasts relative to the negative control [4]: low but significant effect |
| QFCGPCGLRKRLRKFRNK [MBb11] | – | −0.3537% | −0.419% | −0.419 p = (0.025) % | – | effect on IL-8 inhibition in fibroblasts relative to the negative control [4]: low but significant effect; increase of keratinocyte migration (Keratinocytes): at least 39%; rate of keratinocyte migration (Keratinocytes): significantly increased; Keratinocyte scratch assay (% change relative to control) (Keratinocytes; 1000 ng/ml, N = 8): 0.3892 |
| RWMAP [MBb74] | – | – | −0.3048% | −0.3048 p = (0.019) % | 0.04975% | – |
| SAYGVSKGLRKRLRKFRNK [MBb51] | 0.4175 p = (0.025) % | – | −0.3773% | −0.5028 p = (0.042) % | −0.5028% | Fibroblast proliferation (% change relative to control) (HNDF fibroblasts; 100 ng/ml peptide): 0.3099%; Fibroblast proliferation (% change relative to control) (HNDF fibroblasts; 1000 ng/ml peptide): 0.4175% |
| SDAAVDTSSEITTKDLKEKKEVVEEAENGR [PS-2] | – | −0.498% | – | −0.498 p = (0.048) % | −0.4315% | – |
| SSSGLGLRKRLRKFRNK [MBb50] | 0.3589 p = (0.025) % | – | – | – | – | Fibroblast proliferation (% change relative to control) (HNDF fibroblasts; 100 ng/ml peptide): 0.3589% |
| TFMSHLFCCVQKRCDCSF [MBdol23] | – | – | – | – | – | agar zone of inhibition, inhibiting bacterial growth [1]: effective; agar zone of inhibition, inhibiting bacterial growth [2]: effective |
| VAAHELGHSLGMGH [MBm2] | – | −0.3275% | −0.2058% | −0.4235 p = (0.007) % | −0.4235% | – |
| VCDEPKDQTVVGPALAAYR [MBWhit46] | – | −0.6191% | −0.6328% | −0.6328 p = (0.031) % | −0.534% | – |
| VLFEDVIAEP [MBBey 37] | – | – | −0.2873% | −0.2873 p = (0.018) % | – | – |
| VYFVIKT [MBBey41] | – | – | −0.691% | −0.691 p = (0.021) % | – | – |
| WVSGL [MBb7] | – | −0.1848% | – | −0.2139 p = (0.02) % | −0.2139% | – |
